From patent publication US20080119513A1, “Sulfonamide Derivative Selectively Inhibiting Mmp-13” (priority 2004, published 2008) come the findings set out here.

Some results are limits rather than exact numbers.

By IC50 is commonly meant the concentration needed to halve the response being measured.

What all share (format): biochemical
One test addresses T1, MMP-13 (Homo sapiens, UniProt P45452).
T1 construct: catalytic domain (^104Tyr˜^267Gly) was amplified with RT-PCR; His-tag; enterokinase digestion-site
In words: Assay for inhibitory activities on MMPs (fluorogenic peptide substrate), MMP-13. Here is the method:
In regard to MMP-13, mRNA was prepared from carcinoma cell SW1353 derived from human cartilage stimulate by IL-1 and TNF, and catalytic domain (^[…]) was amplified with RT-PCR. This was cloned in Escherichia coli expression vector […] inserted with His-tag sequence and enterokinase digestion-site, induced and expressed by IPTG (Isopropyl-β-D-thiogalactopyranoside) and expressed in an insoluble fraction. Isolation of MMP-13 from an insoluble fraction was carried out by dissolving in modifier (6 M urea) by a usual method and purification with metal chelate chromatography (Ni […] Sepharose). And then removing modifier (6 M urea) with dialyze and refolding of the enzyme spontaneously gave activated MMP-13. The enzymatic activity on MMPs was analyzed by the method described in “C. Graham Knight, Frances Willenbrock and Gillian Murphy: A novel coumarin-labelled peptide for sensitive continuous assays of the matrix metalloproteinases: FEBS LETT., 296, (1992), 263-266”. The substrate: MOCAc-[…] was purchased from Peptide Institute, Inc., Osaka, Japan. The measurement of the inhibitory activities (IC50) was carried out by the following four methods; (A) Reaction with substrate, enzyme (MMPs) and inhibitor (B) Reaction with substrate and inhibitor, without enzyme (C) Reaction with substrate and enzyme (MMPs), without inhibitor (D) Reaction with substrate only IC50 values were calculated by using the following formula and each fluorescence values of above four methods (A to D). % inhibition={1-(A-B)/(C-D)}×100 IC50 means the concentration required to inhibit 50% of the enzyme activity. The value of inhibitory activity against MMP-2, MMP-8, MMP-9, MMP-12, and MMP-13 measured by above mentioned methods are shown in Table 25 and 26.

The next test addresses T2, MMP-2 (Homo sapiens, UniProt P08253).
T2 sequence (P08253 110-660): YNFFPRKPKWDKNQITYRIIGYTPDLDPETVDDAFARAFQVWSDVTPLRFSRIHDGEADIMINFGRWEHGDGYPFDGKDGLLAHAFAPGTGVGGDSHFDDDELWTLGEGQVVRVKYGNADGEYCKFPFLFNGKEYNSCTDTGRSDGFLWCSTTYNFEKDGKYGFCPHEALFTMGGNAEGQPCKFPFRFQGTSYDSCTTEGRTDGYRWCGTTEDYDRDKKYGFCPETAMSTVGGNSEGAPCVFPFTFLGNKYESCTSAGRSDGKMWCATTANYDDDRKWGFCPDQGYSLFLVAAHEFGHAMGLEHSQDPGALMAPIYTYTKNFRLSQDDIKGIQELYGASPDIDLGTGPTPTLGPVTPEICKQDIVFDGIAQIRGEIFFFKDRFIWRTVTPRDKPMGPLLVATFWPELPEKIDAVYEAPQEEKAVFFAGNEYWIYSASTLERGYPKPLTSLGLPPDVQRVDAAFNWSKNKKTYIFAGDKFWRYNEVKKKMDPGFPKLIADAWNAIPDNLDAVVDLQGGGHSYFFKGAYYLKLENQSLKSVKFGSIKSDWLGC
In words: Assay for inhibitory activities on MMPs (fluorogenic peptide substrate), MMP-2. How it is done: MMP-2 was purchased from Calbiochem-Novabiochem International, Inc.
(§1) The enzymatic activity on MMPs was analyzed by the method described in “C. Graham Knight, Frances Willenbrock and Gillian Murphy: A novel coumarin-labelled peptide for sensitive continuous assays of the matrix metalloproteinases: FEBS LETT., 296, (1992), 263-266”. The substrate: MOCAc-Pro-Leu-Gly-Leu-A2Pr(DNP)-Ala-Arg-NH2 was purchased from Peptide Institute, Inc., Osaka, Japan. The measurement of the inhibitory activities (IC50) was carried out by the following four methods;
(§2) (A) Reaction with substrate, enzyme (MMPs) and inhibitor
(§3) (B) Reaction with substrate and inhibitor, without enzyme
(§4) (C) Reaction with substrate and enzyme (MMPs), without inhibitor
(§5) (D) Reaction with substrate only
(§6) IC50 values were calculated by using the following formula and each fluorescence values of above four methods (A to D).
(§7) % inhibition={1-(A−B)/(C−D)}×100
(§8) IC50 means the concentration required to inhibit 50% of the enzyme activity.
(§9) The value of inhibitory activity against MMP-2, MMP-8, MMP-9, MMP-12, and MMP-13 measured by above mentioned methods are shown in Table 25 and 26.

A further test concerns the target T3, MMP-8 (Homo sapiens, UniProt P22894).
T3 construct: In regard to MMP-8, catalytic domain (^99Phe˜^262Gly) was amplified with PCR; His-tag; enterokinase digestion-site
Nature of the test: Assay for inhibitory activities on MMPs (fluorogenic peptide substrate), MMP-8.
Text: In regard to MMP-8, catalytic domain (^99Phe˜^262Gly) was amplified with PCR using commercial available Human Bone Marrow cDNA. This was cloned in Escherichia coli expression vector pTrc99AHE inserted with His-tag sequence and enterokinase digestion-site, induced and expressed by IPTG (Isopropyl-β-D-thiogalactopyranoside) and expressed in a insoluble fraction (Than F. Ho, M. Walid Qoronfleh, Robert C. Wahl, Trica A. Pulvino, Karen J. Vavra, Joe Falvo, Tracey M. Banks, Patricia G. Brake and Richard B. Ciccarelli: Gene expression, purification and characterization of recombinant human neutrophil collagenase. Gene 146, (1994) 297-301. It was prepared by the method in a slight modification). Isolation of MMP-8 from an insoluble fraction was carried out by dissolving in modifier (6 M urea) by a usual method and purification with metal chelate chromatography. And then removing modifier (6 M urea) with dialysis and refolding of the enzyme spontaneously gave activated MMP-8.
as §1, §2, §3, §4, §5, §6, §7, §8, §9

The target in the next test is T4, MMP-12 (Homo sapiens, UniProt P39900).
T4 construct: In regard to MMP-12, catalytic domain (^100Phe˜^263Gly) was amplified with RT-PCR; His-tag; enterokinase digestion-site
T4 sequence (P39900 100-263): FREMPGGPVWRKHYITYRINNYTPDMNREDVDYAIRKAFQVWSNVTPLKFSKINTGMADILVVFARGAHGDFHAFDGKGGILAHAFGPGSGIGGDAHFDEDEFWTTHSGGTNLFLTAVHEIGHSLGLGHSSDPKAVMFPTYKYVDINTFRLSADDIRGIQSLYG
In words: Assay for inhibitory activities on MMPs (fluorogenic peptide substrate), MMP-12. How it is done: In regard to MMP-12, catalytic domain (^100Phe˜^263Gly) was amplified with RT-PCR from Human Placenta Total RNA. This was cloned in Escherichia coli expression vector pTrc99AHE inserted with His-tag sequence and enterokinase digestion-site, induced and expressed by IPTG (Isopropyl-β-D-thiogalactopyranoside) and expressed in an insoluble fraction. Isolation of MMP-12 from an insoluble fraction was carried out by dissolving in modifier (6 M urea) by a usual method and purification with metal chelate chromatography (Ni Chelateing Sepharose). And then removing modifier (6 M urea) with dialysis and refolding of the enzyme spontaneously gave activated MMP-12.
as §1, §2, §3, §4, §5, §6, §7, §8, §9

In the next test the target is MMP-9 (Homo sapiens, UniProt P14780). In words: Assay for inhibitory activities on MMPs (fluorogenic peptide substrate), MMP-9.
Chain of MMP-9 (P14780 107-707): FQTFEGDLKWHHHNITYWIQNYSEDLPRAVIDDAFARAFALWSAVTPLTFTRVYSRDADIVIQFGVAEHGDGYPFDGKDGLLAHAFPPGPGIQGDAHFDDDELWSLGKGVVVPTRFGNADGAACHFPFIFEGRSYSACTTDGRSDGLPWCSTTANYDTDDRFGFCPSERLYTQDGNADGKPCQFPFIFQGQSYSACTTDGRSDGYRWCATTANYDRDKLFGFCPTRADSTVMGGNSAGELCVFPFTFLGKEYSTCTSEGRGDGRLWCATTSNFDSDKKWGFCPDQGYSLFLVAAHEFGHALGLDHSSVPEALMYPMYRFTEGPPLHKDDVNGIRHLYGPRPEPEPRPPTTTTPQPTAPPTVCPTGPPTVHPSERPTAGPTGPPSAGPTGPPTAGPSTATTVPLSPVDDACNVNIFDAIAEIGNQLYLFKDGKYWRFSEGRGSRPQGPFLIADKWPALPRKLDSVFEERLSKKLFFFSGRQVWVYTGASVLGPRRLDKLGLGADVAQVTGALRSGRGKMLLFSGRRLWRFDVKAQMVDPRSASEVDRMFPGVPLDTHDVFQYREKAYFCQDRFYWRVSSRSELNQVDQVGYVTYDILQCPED
Text: MMP-9 was isolated and purified by the procedure of Y. Okada et al. (Yasunori Okada, Yukio Gonoji, Katsumi Naka, Katsuro Tomita, Isao Nakanishi, Kazushi Iwata, Kyoko Yamashita, and Taro Hayakawa: Matrix metalloproteinase 9 (92-kDa gelatinase/type IV collagenase) from HT1080 human fibrosarcoma cells. Purification and activation of the precursor and enzymic properties, J. Biol. Chem., 1992, 267, 21712-21719) in combination with other following methods: 1) Yasunori Okada, Tatsuhisa Morodomi, Jan J, Enghild, Ko Suzuki, Atsushi Yasui, Isao Nakanishi, Guy Salvesen and Hideaki Nagase: Matrix metalloproteinase 2 from human rheumatoid synovial fibroblasts. Purification and activation of the precursor and enzymic properties, Eur. J. Biochem., 1990, 194, 721-730; 2) Robin V Ward, Rosalind M Hembry, John J Reynolds and Gillian Murphy: The purification of tissue inhibitor of metalloproteinase-2 from its 72 kDa progelatinase complex. Biochem. J., 1991, 278, 179-187. In detail, human fibrosarcoma ATCC HT1080 cell line was cultured to confluent in Dulbecco's Modified Medium (DMEM) containing 10% fetal-calf serum at 37° C. for 48 hours. Subsequently, the medium of confluent culture was changed to serum-free DMEM medium. To obtain MMP-9, phorbol-12-myristate-13-acetate (TPA) must be added to this serum-free DMEM medium at a concentration of 50 ng/ml. The TPA-treated medium was centrifuged at 3000 rpm for 15 min, and the supernatant was concentrated to 450 ml by a Toyo-Roshi UP-20 apparatus with an ultrafiltration membrane. Then, proMMP-9 in this concentrated solution was purified by using columns of Gelatin-Sepharose and Concanavalin A-Sepharose. The pool containing proMMP-9 was dialyzed, concentrated (Toyo-Roshi UP-20) and applied to columns of Sephacryl S-200 and Green A matrix for the separation from TIMPs. The obtained proMMP-9 fraction was activated by TPCK-Trypsin (Final conc.: 3 μg/501 React Mix.).
as §1, §2, §3, §4, §5, §6, §7, §8, §9

T3 sequence (P22894 99-262): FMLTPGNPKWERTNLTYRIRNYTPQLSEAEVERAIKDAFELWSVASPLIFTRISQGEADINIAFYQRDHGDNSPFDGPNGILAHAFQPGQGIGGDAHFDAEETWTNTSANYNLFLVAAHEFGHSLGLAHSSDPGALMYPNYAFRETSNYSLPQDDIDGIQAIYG

For the compound `C[C@H](NS(=O)(=O)c1ccc(-c2ccc(C#Cc3ccc4ccccc4c3)cc2)cc1)C(=O)O` [III-3], the concentration for half-maximal inhibition (IC50) against MMP-13 is 7.86 nM; at MMP-2 it was above 10000 nM; at MMP-8, 56.3 nM; against MMP-12, 70.9 nM; at MMP-9, above 10000 nM.
Take `CC(C)[C@@H](NS(=O)(=O)c1ccc(-c2ccc(C#Cc3ccc4ccccc4c3)cc2)cc1)C(=O)O` [III-4]: the IC50 against MMP-13 is 4.54 nM; on MMP-2 it was 72.6 nM; at MMP-8, 40.1 nM; against MMP-12, 47.4 nM; on MMP-9, above 10000 nM.
On the same counts, the results for `CC(C)C[C@@H](NS(=O)(=O)c1ccc(-c2ccc(C#Cc3ccc4ccccc4c3)cc2)cc1)C(=O)O` [III-6] are 15.1 nM, 499 nM, 261 nM, 363 nM and above 10000 nM.
On the same counts, the results for `CC(C)C[C@H](NS(=O)(=O)c1ccc(-c2ccc(C#Cc3ccc4ccccc4c3)cc2)cc1)C(=O)O` [III-7] are 4.32 nM, 327 nM, 13.1 nM, 20.2 nM and above 10000 nM.
For the compound `COc1ccc2cc(C#Cc3ccc(-c4ccc(S(=O)(=O)N[C@H](Cc5ccc(O)cc5)C(=O)O)cc4)cc3)ccc2c1` [III-46], the 50% inhibitory concentration (IC50) was found to be 9.12 nM at MMP-13 and 57.5 nM at MMP-2.
On the same counts, the results for `Cc1nc2cc(C#Cc3ccc(-c4ccc(S(=O)(=O)N[C@@H](C)C(=O)O)cc4)cc3)ccc2s1` [III-54] are 11.3 nM and 147 nM.
Taken in the same sequence, the figures for `O=C(O)[C@H](CO)NS(=O)(=O)c1ccc(-c2ccc(C#Cc3ccc4sccc4c3)cc2)cc1` [III-55] were 10.9 nM and 494 nM.
Regarding `O=C(O)[C@H](CO)NS(=O)(=O)c1ccc(-c2ccc(C#Cc3ccc4[nH]ccc4c3)cc2)cc1` [III-56], the IC50 against MMP-13 worked out at 6.05 nM; on MMP-2, 65.7 nM.
`CC(C)Oc1cccc(C#Cc2ccc(-c3ccc(S(=O)(=O)N[C@@H](C)C(=O)O)cc3)cc2)c1` [III-60]: the half-inhibitory concentration (IC50) was found to be 97.8 nM against MMP-13 and 1170 nM against MMP-2.
On to `C[C@H](NS(=O)(=O)c1ccc(-c2ccc(C#Cc3cccc(C(=O)O)c3)cc2)cc1)C(=O)O` [III-61], for which the half-inhibitory concentration (IC50) against MMP-13 came to 6.17 nM; against MMP-2 it was 349 nM.
On the same counts, the results for `COCc1cccc(C#Cc2ccc(-c3ccc(S(=O)(=O)N[C@@H](C)C(=O)O)cc3)cc2)c1` [III-62] are 18.9 nM and 402 nM.
Turning to `COCc1cccc(C#Cc2ccc(-c3ccc(S(=O)(=O)N[C@H](C(=O)O)C(C)C)cc3)cc2)c1` [III-63], the results for the 50% inhibitory concentration (IC50) on MMP-13 and against MMP-2 were 9.5 nM and 144 nM, respectively.
In the case of `COCc1cccc(C#Cc2ccc(-c3ccc(S(=O)(=O)N[C@@H](CC(C)C)C(=O)O)cc3)cc2)c1` [III-64], the IC50 at MMP-13 turned out to be 21.1 nM; on MMP-2 it was 261 nM.
Taken in the same sequence, the figures for `COc1ccc2cc(C#Cc3ccc(-c4ccc(S(=O)(=O)NC5(C(=O)O)CCCC5)cc4)cc3)ccc2c1` [III-65] were 172 nM and above 10000 nM.
For the compound `COc1ccc2cc(C#Cc3ccc(-c4ccc(S(=O)(=O)NC5(C(=O)O)CCCCC5)cc4)cc3)ccc2c1` [III-66], the figures for the IC50 on MMP-13 and at MMP-2 were 42.4 nM and above 10000 nM, respectively.
On the same counts, the results for `Cc1c(C(=O)Nc2ccc(-c3ccc(S(=O)(=O)N[C@H](Cc4ccccc4)C(=O)O)cc3)cc2)oc2ccccc12` [VI-46] are 96.5 nM and 747 nM.
On the same counts, the results for `O=C(Nc1ccc(-c2ccc(S(=O)(=O)N[C@@H](Cc3ccccc3)C(=O)O)cc2)cc1)c1cc2ccccc2s1` [VI-48] are 47.3 nM and above 10000 nM.
In the case of `CC(C)(C)[C@H](NS(=O)(=O)c1ccc(-c2ccc(OCc3ccc4ccccc4c3)cc2)cc1)C(=O)O` [VII-8], the values for the 50% inhibitory concentration (IC50) against MMP-13 and at MMP-2 were 7.93 nM and 91 nM, respectively.
Taken in the same sequence, the figures for `CSCC[C@H](NS(=O)(=O)c1ccc(-c2ccc(OCc3ccc4ccccc4c3)cc2)cc1)C(=O)O` [VII-9] were 26.5 nM and 188 nM.
On the same counts, the results for `COc1ccc2cc(COc3ccc(-c4ccc(S(=O)(=O)N[C@@H](C)C(=O)O)cc4)cc3)ccc2c1` [VII-10] are 16.5 nM and above 10000 nM.
Taken in the same sequence, the figures for `C[C@@H](NS(=O)(=O)c1ccc(-c2ccc(COc3ccc4ccccc4c3)cc2)cc1)C(=O)O` [VII-11] were 16.2 nM and above 10000 nM.
